Values joined by “and” are separate entries in the source; they are usually repeats but may differ in a detail not shown here. Identical values can stand only once.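 48-hour exposure; five concentrations; linearly interpolated endpoints. The concentration for 50% growth inhibition is given as GI50. TGI: total growth inhibition.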
Experiments:
Experiment in all cases: NCI tumour cell line growth inhibition, 48 h
DU-145 prostate = test system: DU-145 prostate
HL-60(TB) leukemia = test system: HL-60(TB) leukemia
K-562 leukemia = test system: K-562 leukemia
M14 melanoma = test system: M14 melanoma
NCI-H226 lung = test system: NCI-H226 lung
OVCAR-8 ovarian = test system: OVCAR-8 ovarian
RPMI-8226 leukemia = test system: RPMI-8226 leukemia
SF-295 CNS = test system: SF-295 CNS
SK-MEL-5 melanoma = test system: SK-MEL-5 melanoma
U251 CNS = test system: U251 CNS

SMILES	GI50 (DU-145 prostate) [µM]	TGI (DU-145 prostate) [µM]	GI50 (HL-60(TB) leukemia) [µM]	TGI (HL-60(TB) leukemia)	GI50 (K-562 leukemia) [µM]	TGI (K-562 leukemia)	GI50 (M14 melanoma) [µM]	TGI (M14 melanoma)	GI50 (NCI-H226 lung) [µM]	TGI (NCI-H226 lung) [µM]	GI50 (OVCAR-8 ovarian) [µM]	TGI (OVCAR-8 ovarian)	GI50 (RPMI-8226 leukemia) [µM]	TGI (RPMI-8226 leukemia)	GI50 (SF-295 CNS) [µM]	TGI (SF-295 CNS)	GI50 (SK-MEL-5 melanoma) [µM]	TGI (SK-MEL-5 melanoma)	GI50 (U251 CNS) [µM]	TGI (U251 CNS)
C#Cc1cccc(Nc2ncnc3cc(NC(=O)CCl)ccc23)c1	2.8	5.91	4.45	11.3 µM	0.802	25 µM	2.56	6.4 µM	4.72	11.6	1.61	6.58 µM	1.26	6.15 µM	3.51	6.95 µM	3.37	6.71 µM	0.789	2.92 µM
Oc1ccc(Br)cc1C=Nc1cccc(C(F)(F)F)c1	–	> 100	–	34.4 µM	–	> 100 µM	–	48.6 µM	–	90.6	–	> 100 µM	–	> 100 µM	–	> 100 µM	–	> 100 µM	–	45.1 µM
CSC1=NC(=Nc2c(C)cccc2C)C2(CCC(C(C)(C)C)CC2)N1c1ccc(Cl)cc1 (stereo not drawn)	> 100	> 100	7.94	> 100 µM	4.76	> 100 µM	68.2	> 100 µM	8.93	> 100	15.1	> 100 µM	6.35	> 100 µM	29.9	> 100 µM	9.32	> 100 µM	8.04	> 100 µM
Cc1ccccc1N=Nc1c(O)ccc2ccccc12	–	> 100	–	> 100 µM	–	> 100 µM	–	> 100 µM	–	> 100	–	> 100 µM	–	> 100 µM	–	> 100 µM	–	> 100 µM	–	> 100 µM
COc1ccc(C(O)c2cc3c(N)c(C(=O)Nc4ccc(Cl)cc4)sc3nc2C)cc1 (stereo not drawn)	2.71	7.66	1.91	9.63 µM	0.694	> 100 µM	1.74	29.9 µM	2.85	9.47	4.02	26.7 µM	2.22	9.32 µM	2.14	11.6 µM	2.74	10.2 µM	2.28	15.8 µM
O=C1CC2OCC=C3CN4CCC56c7ccccc7N1C5C2C3CC46O (stereo not drawn)	–	> 100	–	> 100 µM	–	> 100 µM	–	> 100 µM	–	> 100	–	> 100 µM	–	> 100 µM	–	> 100 µM	–	> 100 µM	–	> 100 µM
COc1cc2cc(Oc3ccc(NC(=O)Nc4cc(C(F)(F)F)cc(C(F)(F)F)c4)cc3)c(C)nc2cc1OCCN1CCOCC1	1.93	7.05	1.62	4.93 µM	1.41	5.5 µM	1.51	5.88 µM	1.6	6.53	1.67	12.8 µM	0.84	2.12 µM	1.14	2.92 µM	0.885	1.66 µM	1.13	2.85 µM
Clc1nccc2c(-c3csc(-c4c[nH]c5ccc(Br)cc45)n3)c[nH]c12	1.76	14	2.64	14.1 µM	2.73	9.44 µM	2.22	5.62 µM	2.4	13.8	3.65	16.2 µM	4.03	39 µM	2.48	5.61 µM	2.61	6.42 µM	2.05	5.02 µM
O=C(CS(=O)(=O)c1nc2ccccc2nc1-c1ccccc1)Nc1ccc(F)cc1	36.1	> 100	1.8	10.3 µM	3.83	16.6 µM	> 100	> 100 µM	85.7	> 100	94.3	> 100 µM	29.1	> 100 µM	> 100	> 100 µM	23.9	94.6 µM	37.9	> 100 µM
c1ccc(-c2oc(-c3ccccc3)c(CN3CCCCC3)c2CN2CCCCC2)cc1	7.72	21.6	1.96	5.28 µM	1.94	6.51 µM	1.83	4.25 µM	5.19	22.7	3.91	17.1 µM	1.66	4.08 µM	2.05	6.58 µM	1.59	3.08 µM	3.55	14.2 µM
COc1cc(/C=C2\C(=O)N(Cc3ccc(Cl)cc3)c3ccccc32)cc(OC)c1OC	2.05	5.04	1.94	5.44 µM	2.78	16.4 µM	2.45	7.01 µM	5.2	19.9	3.4	> 45.2 µM	0.645	2.39 µM	4.41	32.3 µM	3.98	11.9 µM	1.75	3.44 µM
C=C1C(=O)O[C@H]2[C@H]1CC/C(COC(=O)c1cc(OC)c(OC)c(OC)c1)=C\CC[C@@]1(C)O[C@@H]21	1.23	2.47	0.711	2.95 µM	0.388	11.5 µM	1.27	3.05 µM	1.4	3.63	1.85	10.3 µM	0.422	2.34 µM	3.84	15.8 µM	1.68	3.05 µM	1.6	3.47 µM
COC(=O)NC1C(C)OC(OC2C/C=C(/C)C3C=CC4C(OC5CC(OC6CCC(OC7CC(O)C(OC8CCC(O)C(C)O8)C(C)O7)C(C)O6)C(OC(C)=O)C(C)O5)C(C)CC(C)C4C3(C)/C(O)=C3/C(=O)OC4(CC(C=O)=CC(O)C4/C=C\2C)C3=O)CC1(C)[N+](=O)[O-] (stereo not drawn)	–	5.07	0.354	4.43 µM and 2.53 µM	0.218	11 µM and 12.1 µM	0.382	2.42 µM and 1.54 µM	–	2.72	0.265	3.85 µM and 2.73 µM	0.225	5.99 µM and 0.705 µM	0.271	2.76 µM and 4.15 µM	0.2	1.95 µM and 0.511 µM	0.179	0.901 µM and 0.499 µM
Oc1ccc(Cl)cc1C(c1cc(Cl)ccc1O)C(Cl)(Cl)Cl	1.77	3.42	2.45	5.13 µM	2.28	5.59 µM	1.78	3.62 µM	1.94	4.81	2.89	9.59 µM	2.72	8.4 µM	1.97	4.76 µM	1.58	3.05 µM	1.71	3.45 µM

Source: PubChem BioAssay (NCI)
